{"source": "paper PMC8761715", "about": "(Clinical Pharmacokinetics, 2021)", "key": {"[1]": {"conditions": "rivaroxaban with more than one combined P-gp and CYP3A4 inhibitor; atrial fibrillation patients; 95% CI 1.01–1.85, p = 0.04; cited from earlier work"}, "[2]": {"conditions": "cited from earlier work"}, "[3]": {"experiment": "Plasma pharmacokinetics of the azole antifungals", "format": "in vivo, human", "conditions": "after first 200 mg dose, fasting; LLOQ 0.1 µg/mL"}, "CYP3A": {"tested_on": "CYP3A", "conditions": "cited from earlier work"}, "P-gp/BCRP": {"tested_on": "P-gp/BCRP", "conditions": "cited from earlier work"}, "[4]": {"conditions": "cited from earlier work", "remark": "listed apart in the source"}, "CYP2J2": {"tested_on": "CYP2J2", "conditions": "cited from earlier work"}, "[5]": {"conditions": "cited from earlier work", "remark": "listed apart in the source"}, "CYP2C9": {"tested_on": "CYP2C9", "conditions": "cited from earlier work"}, "CYP2C19": {"tested_on": "CYP2C19", "conditions": "cited from earlier work"}, "[6]": {"experiment": "Pharmacokinetics of microdosed rivaroxaban", "conditions": "rivaroxaban 25 µg microdose with the azole named as label, vs baseline"}, "CYP2D6": {"tested_on": "CYP2D6", "conditions": "multiple doses of isavuconazole; cited from earlier work"}, "[7]": {"experiment": "Pharmacokinetics of microdosed edoxaban"}, "[8]": {"conditions": "posaconazole as tablets; general statement, ref not given; cited from earlier work"}}, "data": [{"smiles": "O=C(NC[C@H]1CN(c2ccc(N3CCOCC3=O)cc2)C(=O)O1)c1ccc(Cl)s1", "note": "[Rivaroxaban, rivaroxaban]", "values": [{"measurement": "Bleeding risk ratio (RR) compared with warfarin", "setting": "[1]", "result": 1.37}, {"measurement": "Rivaroxaban P-gp/BCRP-dependent active renal secretion", "setting": "[2]", "result": "approximately 30 % of a dose"}, {"measurement": "Rivaroxaban bioavailability", "setting": "[2]", "result": "80–100%"}, {"measurement": "Rivaroxaban partial clearance by non-enzymatic hydrolysis", "setting": "[2]", "result": "approximately 14%"}, {"measurement": "Rivaroxaban partial clearance mediated by CYP2J2", "setting": "[2]", "result": "approximately 14%"}, {"measurement": "Rivaroxaban partial clearance mediated by CYP3A", "setting": "[2]", "result": "approximately 18 % of a dose"}]}, {"smiles": "CCC(C)n1ncn(-c2ccc(N3CCN(c4ccc(OCC5COC(Cn6cncn6)(c6ccc(Cl)cc6Cl)O5)cc4)CC3)cc2)c1=O", "note": "(stereo not drawn) [Itraconazole, itraconazole]", "values": [{"measurement": "Azole plasma concentrations (in words)", "setting": "[3]", "result": "below the LLOQ"}, {"measurement": "CYP3A inhibitor classification", "setting": "CYP3A", "result": "Strong"}, {"measurement": "P-gp/BCRP inhibitor classification", "setting": "P-gp/BCRP", "result": "P-gp/BCRP inhibitor"}]}, {"smiles": "C[C@@H](c1ncncc1F)[C@](O)(Cn1cncn1)c1ccc(F)cc1F", "note": "[Voriconazole, voriconazole]", "values": [{"measurement": "CYP3A inhibitor classification", "setting": "CYP3A", "result": "Strong"}, {"measurement": "P-gp/BCRP inhibitor classification", "setting": "P-gp/BCRP", "result": "not P-gp/BCRP, inhibitor"}]}, {"smiles": "CC(=O)N1CCN(c2ccc(OCC3COC(Cn4ccnc4)(c4ccc(Cl)cc4Cl)O3)cc2)CC1", "note": "(stereo not drawn) [Ketoconazole, ketoconazole]", "values": [{"measurement": "Apixaban Cmax increase with ketoconazole, published", "setting": "[4]; similar perpetrator dose, longer pretreatment", "result": 1.6, "unit": "fold"}, {"measurement": "CYP3A inhibitor classification", "setting": "CYP3A", "result": "Strong"}, {"measurement": "Rivaroxaban AUC increase with ketoconazole, published", "setting": "[2]", "result": 2.6, "unit": "fold"}, {"measurement": "CYP2J2 inhibitor classification", "setting": "CYP2J2", "result": "potent inhibitor"}, {"measurement": "Edoxaban AUC increase with ketoconazole, published", "setting": "[5]", "result": 1.9, "unit": "fold"}]}, {"smiles": "OC(Cn1cncn1)(Cn1cncn1)c1ccc(F)cc1F", "note": "[Fluconazole, fluconazole]", "values": [{"measurement": "CYP2C9 inhibitor classification", "setting": "CYP2C9", "result": "moderate"}, {"measurement": "CYP3A inhibitor classification", "setting": "CYP3A", "result": "Mainly moderate"}, {"measurement": "Rivaroxaban CL/F reduction with fluconazole, published", "setting": "[2]; therapeutic dose of rivaroxaban, 4 days pre-exposure", "result": 29, "unit": "%"}, {"measurement": "P-gp/BCRP inhibitor classification", "setting": "P-gp/BCRP", "result": "not P-gp/BCRP, inhibitor"}, {"measurement": "CYP2C19 inhibitor classification", "setting": "CYP2C19", "result": "strong"}]}, {"smiles": "C[C@@H](c1nc(-c2ccc(C#N)cc2)cs1)[C@](O)(Cn1cncn1)c1cc(F)ccc1F", "note": "[Isavuconazole, isavuconazole]", "values": [{"measurement": "CYP3A inhibitor classification", "setting": "CYP3A", "result": "Weak to moderate"}, {"measurement": "Effect of azole on rivaroxaban pharmacokinetics (in words)", "setting": "[6]", "result": "did not alter any pharmacokinetic parameters"}, {"measurement": "Increase in dextromethorphan exposure", "setting": "CYP2D6", "result": "< 20", "unit": "%"}, {"measurement": "P-gp/BCRP inhibitor classification", "setting": "P-gp/BCRP", "result": "P-gp inhibitor, but not BCRP inhibitor"}]}, {"smiles": "CN1CCc2nc(C(=O)N[C@@H]3C[C@@H](C(=O)N(C)C)CC[C@@H]3NC(=O)C(=O)Nc3ccc(Cl)cn3)sc2C1", "note": "[Edoxaban, edoxaban]", "values": [{"measurement": "Average CL/F of edoxaban higher than published values", "setting": "[7]; compared with 18 study participants of ref 24", "result": 30, "unit": "%"}, {"measurement": "Edoxaban individual CL/F, observed range", "setting": "[7]; this study, 50 µg microdose", "result": "600 to 2200", "unit": "mL/min"}, {"measurement": "Edoxaban individual CL/F, range of previous study", "setting": "[5]; 18 study participants", "result": "490 to 1460", "unit": "mL/min"}, {"measurement": "Edoxaban bioavailability", "setting": "[5]", "result": "approximately 62%"}, {"measurement": "Edoxaban dose eliminated unchanged in the urine", "setting": "[5]", "result": "approximately 24%"}, {"measurement": "Edoxaban dose excreted unchanged in the faeces", "setting": "[5]", "result": "About 50%"}, {"measurement": "Part of edoxaban elimination by CYP-mediated metabolism", "setting": "[5]", "result": "< 4", "unit": "%"}]}, {"smiles": "COc1ccc(-n2nc(C(N)=O)c3c2C(=O)N(c2ccc(N4CCCCC4=O)cc2)CC3)cc1", "note": "[Apixaban, apixaban]", "values": [{"measurement": "Contribution of CYP enzymes other than CYP3A to overall elimination of apixaban", "setting": "[4]", "result": 6, "unit": "%"}]}, {"smiles": "CC[C@@H]([C@H](C)O)n1ncn(-c2ccc(N3CCN(c4ccc(OC[C@@H]5CO[C@@](Cn6cncn6)(c6ccc(F)cc6F)C5)cc4)CC3)cc2)c1=O", "note": "[Posaconazole, posaconazole]", "values": [{"measurement": "CYP3A inhibitor classification", "setting": "CYP3A", "result": "Strong"}, {"measurement": "P-gp/BCRP inhibitor classification", "setting": "P-gp/BCRP", "result": "in vitro P-gp/BCRP inhibitor"}, {"measurement": "Time at which maximum plasma concentrations are reached (tmax)", "setting": "[8]", "result": "4 to 5", "unit": "h"}]}]}
